Measured values: patent US10385103B2, “Cell-permeable (ICP)-SOCS3 recombinant protein and uses thereof” (CELLIVERY THERAPEUTICS, INC., priority 2014, dated 2019)

Tested on: RAW 264.7 cells
Assay: Quantitative cell-permeability of FITC-labeled aMTD- or rPeptide-fused CRA recombinant proteins (flow cytometry)
Format: cell-based
Conditions: for Relative Ratio to aMTD AVE: cell-permeability of rPeptide-fused CRA recombinant protein relative to average of 240 aMTDs
Source text: The aMTDs and rPeptides were fluorescently labeled and compared based on the critical factors for cell-permeability by using flow cytometry and confocal laser scanning microscopy (FIGS. 5 to 8). The cellular uptake of the peptide-fused non-functional cargo recombinant proteins could quantitatively be evaluated in flow cytometry, while confocal laser scanning microscopy allows intracellular uptake to be assessed visually. The analysis included recombinant proteins fused to a negative control [rP38] that has opposite characteristics (hydrophilic and aromatic sequence: […] NO: 952)) to the aMTDs (hydrophobic and aliphatic sequences). Relative cell-permeability (relative fold) of aMTDs to the negative control was also analyzed (Table 23 and FIG. 9). […] RAW 264.7 cells were treated with 10 μM FITC-labeled recombinant proteins for 1 hour at 37° C., washed three times with cold PBS, treated with 0.25% tripsin/EDTA (Sigma-Aldrich, St. Louis, Mo.) for 20 minutes at 37° C. to remove cell-surface bound proteins. Cell-permeability of these recombinant proteins were analyzed by flow cytometry (Guava, Millipore, Darmstadt, Germany) using the FlowJo cytometric analysis software (FIGS. 5 to 6).

[1] = cell-permeability of aMTD-fused CRA recombinant protein relative to negative control (A: rP38)
[2] = cell-permeability of aMTD-fused CRA recombinant protein relative to reference CPP (B: MTM12)
[3] = cell-permeability of aMTD-fused CRA recombinant protein relative to reference CPP (C: MTD85)
[4] = 10 μM FITC-labeled, 1 hour, 37° C., RAW 264.7 cells
[5] = cell-permeability relative to negative control rP38 (A type), aMTD-fused CRA recombinant protein, 10 μM FITC-labeled, 1 hour, 37° C., RAW 264.7 cells
[6] = cell-permeability relative to reference CPP MTD85 (C type), aMTD-fused CRA recombinant protein, 10 μM FITC-labeled, 1 hour, 37° C., RAW 264.7 cells
[7] = cell-permeability relative to reference CPP MTM12 (B type), aMTD-fused CRA recombinant protein, 10 μM FITC-labeled, 1 hour, 37° C., RAW 264.7 cells
[8] = relative cell-permeability of aMTD vs reference A (not defined)
[9] = relative cell-permeability of aMTD vs reference CPP B: MTM12
[10] = relative cell-permeability of aMTD vs reference CPP C: MTD85

Substance	Relative Ratio (Fold) A [1] [Fold]	Relative Ratio (Fold) B [2] [Fold]	Relative Ratio (Fold) C [3] [Fold]	further results
221 (AAILAPIVALAP; Amino acid Sequence of aMTD221) [compound 221]	10.9	7.3	3.7	–
921 (IWWFVVLPLVVP; Amino acid Sequence of rPeptide ID 921) [compound 921]	–	–	–	Relative Ratio to aMTD AVE [4]: 0.14; Relative Ratio (Fold) A (relative cell-permeability of rPeptide vs reference A (not defined)): 2.8 Fold; Relative Ratio (Fold) B (relative cell-permeability of rPeptide vs reference CPP B: MTM12): 1.9 Fold; Relative Ratio (Fold) C (relative cell-permeability of rPeptide vs reference CPP C: MTD85): 0.9 Fold
964 (ALLVIAPAIAVP; Amino acid Sequence of aMTD864) [compound 964]	8.2	4.8	2.8	–
483 (ILAAAIIPAALP; Amino acid Sequence of aMTD483) [compound 483]	–	–	–	Relative Ratio (Fold) A [5]: 6.8 Fold; Relative Ratio (Fold) C [6]: 2.3 Fold; Relative Ratio (Fold) B [7]: 4.5 Fold
604 (VALIAVAPAVVP; Amino acid Sequence of aMTD604) [compound 604]	–	–	–	Relative Ratio (Fold) A [5]: 4.3 Fold; Relative Ratio (Fold) C [6]: 1.5 Fold; Relative Ratio (Fold) B [7]: 2.5 Fold
66 (AGVLGGPIMGVP; Amino acid Sequence of rPeptide ID 66) [compound 66]	–	–	–	Relative Ratio to aMTD AVE [4]: 0.13
829 (AALALVAPVIVP; Amino acid Sequence of aMTD829) [compound 829]	44.8	30.0	15.2	–
324 (IVAVALPAALVP; Amino acid Sequence of aMTD324) [compound 324]	10.3	6.9	3.5	Relative Ratio (Fold) A [8]: 10.3 Fold; Relative Ratio (Fold) B [9]: 6.9 Fold; Relative Ratio (Fold) C [10]: 3.5 Fold
783 (IVALVPAVAIAP; Amino acid Sequence of aMTD783) [compound 783]	–	–	–	Relative Ratio (Fold) A [5]: 5.7 Fold; Relative Ratio (Fold) C [6]: 1.9 Fold; Relative Ratio (Fold) B [7]: 3.8 Fold
545 (VVLVLAAPAAVP; Amino acid Sequence of aMTD545) [compound 545]	34.6	23.1	11.7	–
767 (IVVAAVVPALAP; Amino acid Sequence of aMTD767) [compound 767]	8.5	5.0	2.9	–
342 (VIVALAPAVLAP; Amino acid Sequence of aMTD342) [compound 342]	12.7	8.5	4.3	–
605 (VIAAVLAPVAVP; Amino acid Sequence of aMTD605) [compound 605]	11.0	7.4	3.7	–
904 (AVLAVVAPVVAP; Amino acid Sequence of aMTD904) [compound 904]	106.7	70.8	35.8	Relative Ratio (Fold) A [8]: 105.7 Fold
693 (AAPVLPVAVPIV; Amino acid Sequence of rPeptide ID 693) [compound 693]	–	–	–	Relative Ratio to aMTD AVE [4]: 0.13
911 (VALALPAVVVAP; Amino acid Sequence of aMTD911) [compound 911]	84.8	56.8	28.7	Relative Ratio (Fold) A [8]: 84.8 Fold; Relative Ratio (Fold) B [9]: 56.8 Fold; Relative Ratio (Fold) C [10]: 28.7 Fold
322 (VVAIVLPALAAP; Amino acid Sequence of aMTD322) [compound 322]	17.6	11.7	5.9	–
65 (IAIVAPVVALAP; Amino acid Sequence of aMTD65) [compound 65]	–	–	–	Relative Ratio (Fold) A [5]: 3.0 Fold; Relative Ratio (Fold) C [6]: 1.0 Fold; Relative Ratio (Fold) B [7]: 2.0 Fold
185 (AALVLPLIIAAP; Amino acid Sequence of aMTD185) [compound 185]	8.5	5.7	2.9	–
891 (ILAVAAIPAALP; Amino acid Sequence of aMTD891) [compound 891]	44.7	29.9	15.1	–

Substance	Relative Ratio (Fold) A [1] [Fold]	Relative Ratio (Fold) B [2] [Fold]	Relative Ratio (Fold) C [3] [Fold]	further results
544 (IVALIVAPAAVP; Amino acid Sequence of aMTD544) [compound 544]	23.4	15.6	7.9	–
421 (AAILAAPLIAVP; Amino acid Sequence of aMTD421) [compound 421]	–	–	–	Relative Ratio (Fold) A [5]: 6.7 Fold; Relative Ratio (Fold) C [6]: 2.3 Fold; Relative Ratio (Fold) B [7]: 4.5 Fold
810 (VIVLAAPALAAP; Amino acid Sequence of aMTD810) [compound 810]	120.0	80.3	40.6	–
803 (AIALAVPVLALP; Amino acid Sequence of aMTD803) [compound 803]	74.7	50.0	25.3	–
827 (IAAVLAAPALVP; Amino acid Sequence of aMTD827) [compound 827]	43.0	28.8	14.6	–
424 (AVVVAAPVLALP; Amino acid Sequence of aMTD424) [compound 424]	–	–	–	Relative Ratio (Fold) A [5]: 6.6 Fold; Relative Ratio (Fold) C [6]: 2.2 Fold; Relative Ratio (Fold) B [7]: 4.4 Fold
18 (NYCCTPTTNGQS; Amino acid Sequence of rPeptide ID 18) [compound 18]	–	–	–	Relative Ratio to aMTD AVE [4]: 0.10
403 (AAALVIPAAILP; Amino acid Sequence of aMTD403) [compound 403]	25.2	16.8	8.5	–
323 (IVAVALPVALAP; Amino acid Sequence of aMTD323) [compound 323]	19.1	12.8	6.4	–
343 (IVAVALPALVAP; Amino acid Sequence of aMTD343) [compound 343]	19.4	12.9	6.5	–
541 (LLALIIAPAAAP; Amino acid Sequence of aMTD541) [compound 541]	14.8	9.9	5.0	–
625 (ILAAAAAPLIVP; Amino acid Sequence of aMTD625) [compound 625]	20.3	13.9	7.0	–
564 (VAIALIVPALAP; Amino acid Sequence of aMTD564) [compound 564]	43.6	29.1	14.7	–
502 (AIVALAVPVLAP; Amino acid Sequence of aMTD502) [compound 502]	–	–	–	Relative Ratio (Fold) A [5]: 5.6 Fold; Relative Ratio (Fold) C [6]: 1.9 Fold; Relative Ratio (Fold) B [7]: 3.7 Fold
845 (AAVVIAPLLAVP; Amino acid Sequence of aMTD845) [compound 845]	35.8	24.0	12.1	–
426 (AAALAIPLAIIP; Amino acid Sequence of rPeptide ID 426) [compound 426]	–	–	–	Relative Ratio to aMTD AVE [4]: 0.40
390 (VPLLVPVVPVVP; Amino acid Sequence of rPeptide ID 390) [compound 390]	–	–	–	Relative Ratio to aMTD AVE [4]: 0.41
687 (AILAVALPLLAP; Amino acid Sequence of aMTD687) [compound 687]	12.0	7.0	4.1	–
852 (VLAVAAPAVLLP; Amino acid Sequence of aMTD852) [compound 852]	84.6	56.6	28.6	–
809 (LIVLAAPALAAP; Amino acid Sequence of aMTD809) [compound 809]	–	–	–	Relative Ratio (Fold) A [5]: 7.0 Fold; Relative Ratio (Fold) C [6]: 2.4 Fold; Relative Ratio (Fold) B [7]: 4.7 Fold
